This note sets out measurements from publication PMC6114080 (International Journal for Parasitology: Drugs and Drug …, 2018).

Common to all, as to assay type: biochemical
For experiment [1], the target named is T1, CpGPI (MBP-CpGPI) (Cryptosporidium parvum, UniProt Q5CTF8).
T1 sequence (Q5CTF8 1-567): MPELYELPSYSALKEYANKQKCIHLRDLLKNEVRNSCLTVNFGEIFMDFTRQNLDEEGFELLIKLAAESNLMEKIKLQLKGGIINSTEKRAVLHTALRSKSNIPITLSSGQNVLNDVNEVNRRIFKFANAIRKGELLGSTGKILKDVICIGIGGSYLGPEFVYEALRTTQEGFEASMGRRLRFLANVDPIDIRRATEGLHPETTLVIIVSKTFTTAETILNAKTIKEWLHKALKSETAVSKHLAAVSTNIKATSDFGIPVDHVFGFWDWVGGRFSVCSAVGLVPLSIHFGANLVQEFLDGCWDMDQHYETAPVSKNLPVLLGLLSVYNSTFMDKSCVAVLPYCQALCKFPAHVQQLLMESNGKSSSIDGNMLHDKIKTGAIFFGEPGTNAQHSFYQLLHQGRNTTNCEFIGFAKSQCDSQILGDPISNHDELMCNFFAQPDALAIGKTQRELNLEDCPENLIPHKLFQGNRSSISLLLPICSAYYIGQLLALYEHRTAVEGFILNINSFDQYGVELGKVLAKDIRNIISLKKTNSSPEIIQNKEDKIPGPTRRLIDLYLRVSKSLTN
Kind of experiment: G6PDH-coupled NADH assay at […] nm.

Experiment [2] deals with T1, CpGPI (MBP-CpGPI). Kind of experiment: G6PDH-coupled NADH assay at […] nm, mixed noncompetitive fit.
In another experiment the target is HsGPI (Homo sapiens, UniProt P06744). Kind of experiment: G6PDH-coupled NADH assay at […] nm.

By IC50 is commonly meant the concentration that inhibits the measured activity by half. Regarding `O=C[C@H](O)[C@H](O)COP(=O)(O)O` [erythrose-4-phosphate], it took 132 µM to reach half-maximal inhibition at CpGPI (MBP-CpGPI) [1] (IC50).
As usually defined, the Ki is a measure of affinity in units of concentration, obtained from inhibition or displacement. High values mean a looser hold on the target, low ones a stronger hold on the target. In the case of `O=c1c2ccccc2[se]n1-c1ccccc1` [ebselen, 2-phenyl-1,2-benzisoselenazol-3(2H)-one], the results for the IC50 against CpGPI (MBP-CpGPI) [1] and at HsGPI were 8.33 µM and over 400 µM, respectively. This compound also had a Ki at CpGPI (MBP-CpGPI) [2] of 36.3 µM.
